Reference: ChEMBL document CHEMBL1122402, “Antidiabetic activity of some 1-substituted 3,5-dimethylpyrazoles” (1983)

Organism: Mus musculus
Assay: Hypoglycemic activity in alloxan-diabetic female albino mice expressed as percentage reduction of plasma glucose levels
Format: functional
Parameters: concentration or dose not given beside the values
In the case of `Cc1cc(C)n(C(=O)c2ccc(NC(=O)Nc3ccccc3)cc2)n1`, the Reduction is reported as 6%.
Work on `CCCNC(=O)Nc1ccc(C(=O)n2nc(C)c(Br)c2C)cc1` yielded a Reduction of 5%.
Molecule `CCCNC(=O)NS(=O)(=O)c1ccc(C(=O)n2nc(C)cc2C)cc1` has a Reduction of under 1%.
With `CCCNC(=O)Nc1ccc(C(=O)n2nc(C)cc2C)cc1` the Reduction was 8%.
Molecule `CCCNC(=O)NS(=O)(=O)c1ccc(NC(=O)n2nc(C)c(Br)c2C)cc1` has a Reduction of 1%.
`CCCCNC(=O)Nc1ccc(C(=O)n2nc(C)c(Br)c2C)cc1` showed a Reduction of 6%.
Molecule `Cc1nn(C(=O)c2ccc(S(=O)(=O)NC(=O)NC3CCCCC3)cc2)c(C)c1Br` has a Reduction of 1%.
In the case of `Cc1cc(C)n(C(=O)c2cccnc2)n1`, the Reduction is reported as under 1%.
`CCNC(=O)NS(=O)(=O)c1ccc(C(=O)n2nc(C)c(Br)c2C)cc1` gave a Reduction of 1%.
With `Cc1cc(C)n(CC(=O)n2nc(C)cc2C)n1` the Reduction was 2.5%.
With `Cc1cc(C)n(C(=O)Nc2ccc(S(=O)(=O)NC(=O)NCc3ccccc3)cc2)n1` the Reduction was 1%.
`CCCCNC(=O)NS(=O)(=O)c1ccc(-n2nc(C)c(Br)c2C)cc1` showed a Reduction of 3%.
`Cc1cc(C)n(C(=O)c2ccc(S(=O)(=O)NC(=O)NCc3ccccc3)cc2)n1` showed a Reduction of under 1%.
For `CCCCNC(=O)NS(=O)(=O)c1ccc(NC(=O)n2nc(C)c(Br)c2C)cc1`, the Reduction was 2%.
With `Cc1cc(C)n(C(=O)c2ccc(S(=O)(=O)NC(=O)Nc3ccccc3)cc2)n1` the Reduction was 2%.
`Cc1nn(C(=O)c2ccc(S(=O)(=O)NC(=O)NCc3ccccc3)cc2)c(C)c1Br` was tested, and the Reduction was 2%.
With `CCCNC(=O)NS(=O)(=O)c1ccc(-n2nc(C)c(Br)c2C)cc1` the Reduction was 2%.
In the case of `Cc1cc(C)n(C(=O)Nc2ccc(S(=O)(=O)NC(=O)NC3CCCCC3)cc2)n1`, the Reduction is reported as 9%.
`CCNC(=O)NS(=O)(=O)c1ccc(C(=O)n2nc(C)cc2C)cc1` gave a Reduction of under 1%.
Work on `CCNC(=O)NS(=O)(=O)c1ccc(NC(=O)n2nc(C)c(Br)c2C)cc1` yielded a Reduction of under 1%.
With `CCCNC(=O)NS(=O)(=O)c1ccc(NC(=O)n2nc(C)cc2C)cc1` the Reduction was 6%.
Work on `CCCCNC(=O)Nc1ccc(C(=O)n2nc(C)cc2C)cc1` yielded a Reduction of 15%.
In the case of `Cc1nn(C(=O)c2ccc(S(=O)(=O)NC(=O)Nc3ccccc3)cc2)c(C)c1Br`, the Reduction is reported as 3%.
With `Cc1nn(C(=O)c2ccc(NC(=O)NC3CCCCC3)cc2)c(C)c1Br` the Reduction was 2.5%.
For `Cc1cc(C)n(C(=O)Nc2ccc(S(=O)(=O)NC(=O)Nc3ccccc3)cc2)n1`, the Reduction was 2%.
Work on `Cc1cc(C)n(CC(=O)NNC(=O)NC2CCCCC2)n1` yielded a Reduction of 2.5%.
In the case of `Cc1nn(-c2ccc(S(=O)(=O)NC(=O)NC3CCCCC3)cc2)c(C)c1Br`, the Reduction is reported as 2.5%.
Molecule `CCNC(=O)NS(=O)(=O)c1ccc(-n2nc(C)c(Br)c2C)cc1` has a Reduction of under 1%.
For `Cc1nn(-c2ccc(S(=O)(=O)NC(=O)Nc3ccccc3)cc2)c(C)c1Br`, the Reduction was under 1%.
Work on `Cc1cc(C)n(C(=O)c2ccncc2)n1` yielded a Reduction of under 1%.
Work on `Cc1nn(C(=O)c2ccc(NC(=O)Nc3ccccc3)cc2)c(C)c1Br` yielded a Reduction of under 1%.
In the case of `Cc1cc(C)n(C(=O)c2ccccc2O)n1`, the Reduction is reported as under 1%.
Molecule `Cc1cc(C)n(C(=O)c2ccc(S(=O)(=O)NC(=O)NC3CCCCC3)cc2)n1` has a Reduction of under 1%.
`CCCCNC(=O)NS(=O)(=O)c1ccc(C(=O)n2nc(C)cc2C)cc1` showed a Reduction of 2%.
`CCNC(=O)NNC(=O)Cn1nc(C)cc1C` was tested, and the Reduction was 1%.
Molecule `CCNC(=O)NS(=O)(=O)c1ccc(NC(=O)n2nc(C)cc2C)cc1` has a Reduction of 4%.
Molecule `CCCCNC(=O)NS(=O)(=O)c1ccc(NC(=O)n2nc(C)cc2C)cc1` has a Reduction of 7.5%.
Work on `Cc1cc(C)n(C(=O)n2nc(C)cc2C)n1` yielded a Reduction of 2.5%.
For `Cc1cc(C)n(C(=O)c2ccc(NC(=O)NC3CCCCC3)cc2)n1`, the Reduction was 20%.
With `CCCNC(=O)NNC(=O)Cn1nc(C)cc1C` the Reduction was 1%.
`Cc1cc(C)n(CC(=O)NNC(=O)NCc2ccccc2)n1` showed a Reduction of under 1%.
With `CCCCNC(=O)NNC(=O)Cn1nc(C)cc1C` the Reduction was 2%.
For `Cc1nn(C(=O)Nc2ccc(S(=O)(=O)NC(=O)NC3CCCCC3)cc2)c(C)c1Br`, the Reduction was 4%.
